For nine compounds, GI50 and TGI results are on record in PubChem BioAssay (NCI).

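Five concentrations, 48 hours, 96-well plates. GI50: concentration for 50% inhibition of growth. TGI: total growth inhibition.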

What all share (assay): growth of human tumour cells (NCI), 48 h
The subject of assay [1] is MOLT-4 leukemia.
In assay [2] the test system is COLO 205 colon.
Assay [3] concerns K-562 leukemia.
Assay [4] deals with SF-268 CNS.
In assay [5] the test system is M14 melanoma.
Assay [6] relates to SW-620 colon.
In assay [7] the test system is ACHN renal.
Assay [8] has as its system OVCAR-5 ovarian.
In assay [9] the test system is SNB-19 CNS.
In assay [10] the test system is LOX IMVI melanoma.

Take `COc1cccc(/C=C/C(=O)c2cc3c(N)c(C(=O)Nc4ccccc4)sc3nc2C)c1`: the GI50 in assay [1] is 1.59 µM; in assay [2] it was 1.54 µM; in assay [3] it was 1.47 µM; in assay [4], 1.47 µM; in assay [5], 1.27 µM; in assay [6] it was 1.12 µM. Also, the GI50 in [7] is 0.971 µM; in assay [8], 1.28 µM; in [9], 1.52 µM; in assay [10], 0.887 µM. Besides, the TGI was greater than 50 µM in [1]; 4.71 µM in assay [2]; greater than 50 µM in [3]; 5.82 µM in assay [4]; 3.52 µM in assay [5]; 3.09 µM in [6]. For the same compound, the TGI in assay [7] came to 1.86 µM; in assay [8], 4.61 µM; in assay [9] it was 5.58 µM; in assay [10], 1.64 µM.
In the case of `CCN1C(=O)N(CC)C2C1NN=c1s/c(=C\c3ccc(Br)cc3)c(=O)n12` (stereo not drawn), the GI50 is 0.392 µM in assay [1]; 0.258 µM in [2]; 0.0453 µM in assay [3]; 0.852 µM in assay [4]; 0.138 µM in assay [5]; 0.0762 µM in assay [6]. Also, the GI50 is 0.249 µM in assay [7], 0.583 µM in [8], 0.346 µM in [9] and 0.185 µM in assay [10]. Besides, the TGI in assay [1], in assay [3], in assay [4], in assay [5], in [6] and in assay [7] was greater than 100 µM in each case. The TGI in [8], in assay [9] and in assay [10] was greater than 100 µM each time.
In the case of `COc1cc(/C=C/[N+](=O)[O-])cc(OC)c1`, the GI50 is 2.25 µM in assay [1]; 1.79 µM in [2]; 1.75 µM in assay [3]; 3.62 µM in assay [4]; 2 µM in assay [5]; 1.68 µM in [6]. The GI50 in [7] was 1.76 µM; in assay [8] it was 3.66 µM; in [9], 8.49 µM; in assay [10] it was 1.42 µM. The TGI in [1] turned out to be 6.33 µM; in assay [2], 3.63 µM; in [3], 9.09 µM; in [4] it was 14.9 µM; in assay [5], 4.48 µM; in assay [6], 3.65 µM. Besides, the TGI in [7] was determined as 3.72 µM; in assay [8] it was 13.4 µM; in [9], 22.1 µM; in [10] it was 2.75 µM.
Turning to `O=[N+]([O-])c1ccc(NC(c2ccccc2)c2ccc3cccnc3c2O)cc1` (stereo not drawn), the GI50 in [1] was 0.344 µM; in [2], 0.448 µM; in assay [3] it was 0.376 µM; in assay [4] it was 0.378 µM; in assay [5], 0.308 µM; in [6], 0.389 µM. Moreover, the GI50 in assay [7] is 0.351 µM; in [8], 1.77 µM; in [9] it was 0.551 µM; in [10], 0.293 µM. Besides, the TGI in [1], in assay [2], in assay [3], in [4], in assay [5] and in [6] was greater than 100 µM in each case. For the same compound, the TGI is greater than 89.9 µM in assay [7], greater than 100 µM in assay [8] and greater than 100 µM in assay [9].
Consider `Oc1ccc(Cl)cc1N=Nc1c(O)ccc2ccccc12`, for which the TGI in assay [1], in assay [2], in [3], in [4], in [5] and in assay [6] was greater than 100 µM in each case. Besides, the TGI in assay [7], in [8], in assay [9] and in [10] was greater than 100 µM each time.
Take `CN1CCN(CCCn2c3c(sc4ncccc43)c(=O)n3nnc(-c4ccccc4)c23)CC1`: the GI50 was 0.889 µM in assay [1]; 4.33 µM in [2]; 0.593 µM in assay [3]; 1.68 µM in assay [4]; 4.67 µM in assay [5]; 1.52 µM in [6]. The GI50 in assay [7] was 1.54 µM; in assay [8] it was 6.89 µM; in assay [9], 2.48 µM; in assay [10], 1.39 µM. Besides, the TGI in [1] was 2.86 µM; in [2], 9.07 µM; in assay [3] it was 1.56 µM; in [4] it was 3.32 µM; in assay [5], 9.5 µM; in assay [6], 3.25 µM. The TGI in assay [7] was 3.04 µM; in assay [8] it was 15.9 µM; in [9], 5.82 µM; in assay [10], 2.75 µM.
For the compound `CCCCCCCCCCCCCC(=O)OCC1OC(=O)C(O)C1O` (stereo not drawn), the TGI in assay [1], in assay [2], in assay [3], in assay [4], in assay [5] and in [6] was greater than 100 µM throughout. The TGI in [7], in assay [8], in assay [9] and in [10] was greater than 100 µM in each case.
As for `CN(C)c1ccc(/C=C(\C#N)C(=O)c2ccccc2)cc1Br`, the TGI in [1], in assay [2], in assay [3], in [4], in assay [5] and in assay [6] was greater than 100 µM each time. The TGI in assay [7] was greater than 100 µM; in [8], greater than 100 µM; in [9], greater than 100 µM; in assay [10] it was 74.2 µM.
As for `COc1ccc(COc2ccc(Cc3cnc(N)nc3N)cc2OC)cc1`, the GI50 in [1] is greater than 25 µM; in [2] it was 4.27 µM; in assay [3], 8.19 µM; in assay [4], greater than 25 µM; in assay [5], greater than 25 µM; in assay [6], greater than 25 µM. The GI50 in assay [7], in assay [8], in assay [9] and in assay [10] was greater than 25 µM in each case. Moreover, the TGI in assay [1] is greater than 25 µM; in [2] it was 8.15 µM; in assay [3], greater than 25 µM; in [4], greater than 25 µM; in assay [5], greater than 25 µM; in assay [6] it was greater than 25 µM. Further, the TGI in assay [7], in assay [8], in assay [9] and in [10] was greater than 25 µM throughout.
